Patent US5902794A (priority 1997, dated 1999)
Read-outs that look alike come from different tables or passages of the source.

Tests used:
[1] = test system: hormone-independent breast and colon cancer cell lines; experiment: growth inhibition of hormone-independent breast and colon cancer lines; format: cell-based, human; conditions: for growth inhibitory effect: alone; for enhancement of the effect of the site-selective compounds: in combination with the site-selective compounds
Experimental: (§1) All breast cancer cell lines were grown in IMEM supplemented with 10% fetal bovine serum, 20 mM HEPES, penicillin-streptomycin, and extra glutamine. Colon carcinoma cell lines were grown in EMEM supplemented with 10% FBS, EMEM, NEAA, HEPES 20 mM, extra glutamine, and penicillin-streptomycin. The cells were grown at 37° C. in humidified incubators in an atmosphere of 5% CO2.
(§2) For cell growth experiments, 2-3×10^5 cells/60 mm dish were seeded, and 24 hours later (Day 0), the medium was removed, and fresh medium and the additives were added then and every 48 hours thereafter The compounds of the present invention were added using 100× concentrated stock solutions. At desired times, cell counts in duplicate were performed on a Coulter counter after harvesting the cells with gentle trypsinization.

[2] = test system: leukemic cell lines (HL-60, K-562, myc-K562, Molt-4); experiment: growth inhibition and viability of leukemic cell lines; format: cell-based, human; conditions: for growth inhibitory effect: alone; for enhancement of the analog effect: in combination with the analogue
[3] = test system: hormone-dependent breast cancer lines; conditions: millimolar concentrations; previously reported; cited from earlier work
R^II = conditions: cited from earlier work
R^I receptor = conditions: cited from earlier work
[4] = test system: breast (MCF-7) and (LS-174T) colon cancer cell lines; experiment: growth inhibition of breast (MCF-7) and colon (LS-174T) cancer cell lines; format: cell-based, human; conditions: 50 micromolar
[5] = test system: MCF-7 ras breast cancer cell line; experiment: synergistic growth inhibition by C-6 and C-8 analogue combination; format: cell-based; conditions: Homo sapiens, MCF7, alone, read-out: percentage growth inhibition of analogue added alone
Experimental: as §1, §2
Synergism quotient was defined as the net growth inhibitory effect of the analogue combination divided by the sum of the net analogue effects on growth inhibition A quotient of >1 indicates a synergistic effect, while a quotient of <1 indicates an antagonistic effect.
Synergism of growth inhibition was determined by treatment of
cells with C-6 analogues and C-8 analogues alone and in combination at
Day 0 and Day 2 and counting the cell number at Day 4

[6] = test system: cultured human fibroblasts; conditions: cited from earlier work
[7] = test system: disseminated neuroblastomas; conditions: in a combined drug regimen; cited from earlier work
YAC lymphoma cell = conditions: mouse, in vivo; cited from earlier work
[8] = test system: breast and colon cancer cells; experiment: effect on cell morphology; format: cell-based, human
From the text: The photographs were taken on Day 4, ×160.
Furthermore, the synergistic growth inhibitory effect of C-6 and C-8 analogue combinations was also reflected in the change in the cell morphology.

[9] = test system: breast and colon cancer cell lines; experiment: cell cycle progression of breast and colon cancer cell lines; format: cell-based, human; conditions: vs untreated control cells
Experimental: DNA histograms were generated on FACS II by using the DNA intercalating dye propidium iodide as described by Braylan et al. (Cytometry 2: 337-343, 1982). The percentage of cells in each cycle phase was calculated by using a PDP-11/34 computer and software as described by Neckers et al. (Mol. Cell. Biol. 6: 4244-4250, 1986).
A determination was made whether the reduced cell proliferation observed in the cancer cell lines after treatment with the compounds of the present invention is due to a specific block in one phase of the cell cycle.

[10] = test system: R^I cAMP receptor protein (MDA-MB-231); experiment: photoaffinity labelling of R^I cAMP receptor protein, MDA-MB-231; format: cell-based, human; conditions: 10 microM, 3 days; control 1.0
Experimental: (§3) M is marker proteins of known molecular weight.
(§4) The incubations were carried out at 23° C. for 60 minutes in 96-well immunoplates. The reaction mixtures were then irradiated for 30 seconds at 254 nm, placing a Mineralite UVS-11 hand lamp directly onto the plate. The samples were mixed with 25 microliters of 3× sample buffer (3% SDS, 15% beta-mercaptoethanol, 30 mM Tris, 30% glycerol, 1% bromophenol blue saturated solution), boiled for 3 minutes, and centrifuged at 700×g for five minutes. The samples containing 50-100 micrograms of protein were subjected to 0.05% SDS-12% PAGE. The gels were fixed, dried, and exposed to X-ray films overnight. The protein concentrations were determined by the method of Lowry et al., (J. Biol. Chem. 193: 265-275, 1951) with bovine serum albumin as standard.
(§5) The levels of the receptor proteins are expressed relative to the R^I level in the untreated control cells of MDA-MB-231 and LS-174T, which are each set equal to 1.0 O.D.; the scale was expanded to differentiate the lower intensity bands.

[11] = test system: R^II cAMP receptor protein (MDA-MB-231); experiment: photoaffinity labelling of R^II cAMP receptor protein, MDA-MB-231; format: cell-based, human; conditions: 10 microM, 3 days; relative to control R^I
Experimental: as §3, §4, §5

[12] = test system: R^I cAMP receptor protein (LS-174T); experiment: photoaffinity labelling of R^I cAMP receptor protein, LS-174T; format: cell-based, human; conditions: 10 microM, 3 days; control 1.0
Experimental: as §3, §4, §5

[13] = test system: R^II cAMP receptor protein (LS-174T); experiment: photoaffinity labelling of R^II cAMP receptor protein, LS-174T; format: cell-based, human; conditions: 10 microM, 3 days; relative to control R^I
Experimental: as §3, §4, §5

MDA-MB-231 = experiment: growth of MDA-MB-231 cells; format: cell-based; conditions: Homo sapiens, MDA-MB-231, 72 h; 10 microM, 3 days
Experimental: as §3, §1, §2

LS-174T = experiment: growth of LS-174T cells; format: cell-based; conditions: Homo sapiens, LS174T, 72 h; 10 microM, 3 days
Experimental: as §3, §1, §2

[14] = test system: R^I and R^II cAMP receptor proteins in breast (MDA-MB-231) and colon (LS-174T) cancer cells; experiment: R^I and R^II cAMP receptor protein levels in breast and colon cancer lines (FIG. 6); format: cell-based, human
Experimental: as §3, §4

cells = experiment: growth inhibition by 8-Cl-AMP; format: cell-based; conditions: as high as 100 microM

Cn1c(=O)c2[nH]cnc2n(C)c1=O [theophylline]
growth inhibitory effect ([1]; 0.1 mM): little or no growth inhibitory effect
enhancement of the effect of the site-selective compounds [1]: could not enhance the effect
growth inhibitory effect ([2]; 0.1 mmol/L): little or no growth inhibitory effect
enhancement of the analog effect [2]: could not enhance the analog effect

CCCC(=O)Nc1ncnc2c1ncn2[C@@H]1O[C@@H]2COP(=O)(O)O[C@H]2[C@H]1O [N^6 -butyryl cAMP]
growth inhibition, hormone-dependent breast cancer lines [3]: growth inhibition only in the hormone-dependent breast cancer lines

Nc1ncnc2c1nc(N1CCCCC1)n2[C@@H]1O[C@@H]2COP(=O)(O)O[C@H]2[C@H]1O [8-piperidino-cAMP, reference compound]
site selectivity of binding, R^II (R^II): selectively binds to site 1
site selectivity of binding, R^I (R^I receptor): binds to site 2

O=P1(O)OC[C@H]2O[C@@H](n3c(Sc4ccc(Cl)cc4)nc4c(Nc5ccccc5)ncnc43)[C@H](O)[C@@H]2O1 [N^6-phenyl-8-p-chlorophenylthio-cAMP]
growth inhibition, in words [4]: most potent growth inhibition among the C-6,-8 disubstituted analogues

CNc1nc2c(N)ncnc2n1[C@@H]1O[C@@H]2COP(=O)(O)O[C@H]2[C@H]1O [8-methylamino-cAMP]
inhibition at 1 µM [5]: 10%
potency relative to 8-Cl-cAMP, times less potent [2]: 5 to 20 times

CC(C)Cn1c(=O)n(C)c(=O)c2[nH]cnc21 [1-methyl-3-isobutylxanthine]
growth inhibitory effect ([1]; 0.5 mM): little or no growth inhibitory effect
enhancement of the effect of the site-selective compounds [1]: could not enhance the effect
growth inhibitory effect ([2]; 0.5 mmol/L): little or no growth inhibitory effect
enhancement of the analog effect [2]: could not enhance the analog effect
DNA synthesis ([6]; added during first eight hours after serum addition): subsequent DNA synthesis was not delayed
DNA synthesis ([6]; added more than eight hours after serum addition): inhibitory

O=C(Nc1ncnc2c1ncn2[C@@H]1O[C@@H]2COP(=O)(O)O[C@H]2[C@H]1O)c1ccccc1 [N^6 -benzoyl-cAMP]
inhibition at 0.5 µM [5]: 10%

COc1ccc(Cc2nccc3cc(OC)c(OC)cc23)cc1OC [papaverine]
clinical result [7]: promising results

cholera toxin
inhibition of YAC lymphoma cell proliferation (YAC lymphoma cell): almost complete inhibition

Nc1ncnc2c1nc(Br)n2[C@@H]1O[C@@H]2COP(=O)(O)O[C@H]2[C@H]1O [8-bromo-cAMP]
potency relative to 8-Cl-cAMP, times less potent [2]: 5 to 20 times

CSc1nc2c(N)ncnc2n1[C@@H]1O[C@@H]2COP(=O)(O)O[C@H]2[C@H]1O [8-methylthio-cAMP]
inhibition at 1 µM [5]: 15%
morphological change ([8]; 100 microM, three to four days): induced the morphological change
potency relative to 8-Cl-cAMP, times less potent [2]: 5 to 20 times

O=P1(O)OC[C@H]2O[C@@H](n3cnc4c(NCc5ccccc5)ncnc43)[C@H](O)[C@@H]2O1 [N^6 -benzyl-cAMP]
inhibition at 0.5 µM [5]: 15%
morphological change ([8]; 0.5 microM alone, four days): did not induce a change in the cell morphology
morphological change ([8]; 50 microM, three to four days): induced the morphological change
fractions of cells in G1, S and G2/M phases, in words [9]: not appreciably different
R^I relative level [10]: 0.25 ± 0.03
R^II relative level [11]: 0.07 ± 0.01
R^I relative level [12]: 0.20 ± 0.02
R^II relative level [13]: 0.25 ± 0.02
activity at 10 µM (MDA-MB-231): 55%
activity at 10 µM (LS-174T): 35%
increase in the ratio of R^II to R^I ([14]; densitometry): two- to three-fold increase
48,000 R^I receptor protein, in words ([14]; three days, 10 microM): concomitant decrease
52,000 MW (R^II) receptor protein, in words ([14]; three days, 10 microM): increased appreciably

Nc1ncnc2c1nc(Cl)n2[C@@H]1O[C@H](COP(=O)(O)O)[C@@H](O)[C@H]1O [8-Cl-AMP]
growth inhibition (cells): no appreciable growth inhibition
